Laboratory results: patent publication US9688653B2, “Ethoxyphenyl thienyl compounds and methods for the treatment of bacterial infections” (Duke University, priority 2013, dated 2017)

What was measured:
E. coli K1 strain UTI89 [1] = test: microbe, parasite or virus in culture; settings: for IC50: Escherichia coli; for Selectivity: five probe analogues
How it was run: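 UTI89 cultures in LB with 0.5% DMSO were preincubated 2 hr at 37 °C with compounds (100 μM in screen), then with K1F phage a further 2 hr. Viability was read as Alamar Blue fluorescence. Phage-lysis inhibition is relative to plate bacterial controls; IC50 by 4-parameter fit locked at 0 and 100.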

E. coli K1 strain UTI89 [2] = test: Secondary assay 2: T7 phage-mediated lysis assay; assay type: cell-based, Escherichia coli; settings: Escherichia coli, five probe analogues; read-out: T7 phage IC50
How it was run: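 E. coli K1 UTI89 shaken 1.5 h with compound (100–0.39 μM, quadruplicate, 1% DMSO), initial OD600 taken to flag growth effects without phage. T7 phage, whose entry is blocked by K capsule, then added; OD600 lysis read after 3 h at 37 °C, greater lysis indicating less capsule.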

[3] = Cytotoxicity counterscreen, CellTiter Glo, 72 hr; assay type: cell-based, human; settings: human, bladder carcinoma 5637 cells (ATCC HTB-9), five probe analogues
How it was run: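 5637 bladder carcinoma cells were exposed to a 10-point compound series (300-0.58 μM, 0.5% DMSO) for 72 h. Viability was measured by CellTiter-Glo luminescence, and TC50 (CC50) was derived, with Hyamine as cytotoxic control.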

[4] = Thiol stability (glutathione, DTT); assay type: physicochemical; settings: 10 μM compound, PBS pH 7.4, room temperature, eight hours
Experimental: Compounds were dissolved at 10 μM in PBS at pH 7.4 (1% DMSO) and incubated at room temperature with either no thiol source as a negative control, 50 μM glutathione (GSH), or 50 μM dithiothreitol (DTT). The mixtures were sampled every hour for eight hours and analyzed by RP HPLC/UV/HRMS. The analytical RP HPLCUV/HRMS system utilized for the analysis was a Waters Acquity system with UV-detection and mass-detection (Waters LCT Premier). The analytical method conditions included a Waters Acquity HSS T3 C18 column (2.1×50 mm, 1.8 um) and elution with a linear gradient of 1% water to 100% CH3CN at 0.6 mL/min flow rate. Peaks on the 214 nm chromatographs were integrated using the Waters OpenLynx software. Absolute areas under the curve were compared at each time point to determine relative percent compound remaining. The masses of potential adducts were searched for in the final samples to determine if any detectable adduct formed. All samples were prepared in duplicate (FIG. 5). Ethacrynic acid, a known Michael acceptor, was used as a positive control. If solubility of the compound was an issue at 10 μM, PBS was substituted with PBS with 50% acetonitrile (35).

[5] = read-out: K1 phage IC50, five probe analogues
[6] = read-out: K1 phage IC50 (inhibition of K1 capsule formation)

Compound	IC50 (E. coli K1 strain UTI89 [1]; [5])	Selectivity (E. coli K1 strain UTI89 [1])	IC50 (E. coli K1 strain UTI89 [2])	IC50 at 72 h [3]	IC50 (E. coli K1 strain UTI89 [1]; [6])	Stability to DTT ([4]; 50 μM DTT)	Stability to glutathione ([4]; 50 μM GSH)
CCOc1ccc(-c2cc(NC(=O)c3ccc(Br)s3)c(C(=O)O)s2)cc1 [CID 53470415, 3-(5-Bromothiophene-2-carboxamido)-5-(4-ethoxyphenyl)thiophene-2-carboxylic acid]	17 ± 4.49 µM	2.92	3.33 µM	49.7 ± 6.49 µM			
O=C(Nc1cc(-c2ccc(C(F)(F)F)cc2)sc1C(=O)O)c1cc2ccccc2o1 [CID 53470417, 3-(Benzofuran-2-carboxamido)-5-(4-(trifluoromethyl)phenyl)thiophene-2-carboxylic acid]	> 100 µM		14.1 µM	72.1 µM			
COc1ccc(-c2cc(NC(=O)c3ccc(Br)o3)c(C(=O)O)s2)cc1 [CID 53470446, 3-(5-Bromofuran-2-carboxamido)-5-(4-methoxyphenyl)thiophene-2-carboxylic acid]	11.1 ± 3.33 µM	4.55	1.24 µM	50.5 ± 0.52 µM	11.1 µM		
O=C(O)c1sc(-c2ccc(OC(F)(F)F)cc2)cc1NC(=O)c1c(F)cccc1F [CID 53495055, 3-(2,6-Difluorobenzamido)-5-(4-(trifluoromethoxy)phenyl)thiophene-2-carboxylic acid]	13 ± 4.6 µM	3.91	1.35 µM	51 ± 2.62 µM	13 µM		
C=C(CC)C(=O)c1ccc(OCC(=O)O)c(Cl)c1Cl [ethacrynic acid, Ethacrynic acid]						even more rapidly	react rapidly
